Results published in paper PMC10817170, “Effect of an NHE3 inhibitor in combination with an NPT2b inhibitor on gastrointestinal phosphate absorption in Rodent models” (PLOS ONE, 2024).

Tests used:
[1] = tested on: acute phosphate uptake into plasma; experiment: Acute phosphate uptake in rats, LY3304000 with fixed 1.2 mg/kg LY3358966; type: in vivo
Experimental: NHE3 inhibitor LY3304000 and NPT2b inhibitor LY3358966 SDD were used in combination to assess their effect on phosphate absorption in rats. To make the LY3358966 dosing solution, an appropriate amount of LY3358966 SDD was weighed for a 1.2 mg/kg API dosing solution with 10 mL/kg dosing volume and dissolved in water. To make the LY3304000 dosing solution, an appropriate amount of LY3304000 was weighed for a 10 mg/kg dose with 10 mL/kg dosing volume and dissolved in 1% HEC vehicle. The subsequent dosing solutions for 3, 1, 0.3, 0.1, 0.03, 0.01, 0.003, and 0.001 mg/kg LY3304000 were prepared by serial dilutions with 1% HEC. Following 12-hour fasting, male SD rats were orally dosed at 10 mL/kg with 1% HEC vehicle, 1.2 mg/kg LY3358966 or increasing doses of LY3304000 with a fixed, 1.2 mg/kg dose of LY3358966. In the vehicle group, the animals were dosed first with 1% HEC immediately followed by water. In the LY3358966 alone group, the animals were first dosed with 1% HEC immediately followed by LY3358966. In the combination groups, the animals were dosed first with LY3304000 immediately followed by LY3358966. Fifteen minutes later, 2 mL Radiolabeled Phosphate Dosing Solution was orally dosed. Fifteen minutes later, blood was collected by cardiac stick, and plasma was prepared. Radioactivity (dpm) in 50-μL plasma was measured by scintillation counting. To measure the total radioactivity dosed to each rat, the radioactivity in two 10-μL samples of the Radiolabeled Phosphate Dosing Solutions was measured by scintillation counting. The mole amount of phosphate uptake was calculated as described above to determine acute phosphate uptake.

Human NPT2b = target: T1, Human NPT2b (Homo sapiens, UniProt O95436); experiment: NPT2b activity assay (33P-phosphate uptake in T-Rex CHO cells); type: cell-based; details: geometric mean, n=3
T1 construct: expressed in transfected cells; host or cells: T-Rex CHO (Thermo Fisher Scientific), tetracycline-inducible
T1 sequence (O95436 1-690): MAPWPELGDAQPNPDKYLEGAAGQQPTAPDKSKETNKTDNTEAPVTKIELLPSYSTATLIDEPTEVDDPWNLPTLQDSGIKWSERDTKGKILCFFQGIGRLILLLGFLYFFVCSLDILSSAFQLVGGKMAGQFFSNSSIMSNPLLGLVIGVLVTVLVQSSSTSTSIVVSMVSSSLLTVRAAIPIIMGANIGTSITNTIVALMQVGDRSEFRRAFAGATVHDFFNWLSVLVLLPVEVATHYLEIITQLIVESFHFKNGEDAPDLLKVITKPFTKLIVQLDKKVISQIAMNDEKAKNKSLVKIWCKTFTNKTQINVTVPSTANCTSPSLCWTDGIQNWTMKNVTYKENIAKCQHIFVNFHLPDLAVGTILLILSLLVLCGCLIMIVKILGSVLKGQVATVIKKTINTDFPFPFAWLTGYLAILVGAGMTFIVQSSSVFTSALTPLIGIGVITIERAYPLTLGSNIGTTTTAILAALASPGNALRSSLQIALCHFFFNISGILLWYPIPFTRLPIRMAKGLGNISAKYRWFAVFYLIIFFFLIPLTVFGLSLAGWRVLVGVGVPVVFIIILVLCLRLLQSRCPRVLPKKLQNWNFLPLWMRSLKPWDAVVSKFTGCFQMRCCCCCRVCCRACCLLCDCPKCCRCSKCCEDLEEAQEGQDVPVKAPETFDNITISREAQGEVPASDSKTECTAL
Experimental: Generation of inducible human, mouse, and rat NPT2b overexpressing T-Rex™ Chinese Hamster Ovary (CHO, Thermo Fisher Scientific) cells and the NPT2b activity assay were described previously. Briefly, cells were plated in 96-well CytoStar-T® scintillating microplates and were incubated overnight in medium plus 100 ng/mL of tetracycline to induce the expression of human NPT2b. The cells were then washed 3 times with 200 μL Assay Buffer (137 mM NaCl, 5.4 mM KCl, 2.8 mM CaCl2, 1.2 mM MgSO4, and 14 mM Tris-HCl buffer, pH 7.5). LY3304000 serially diluted 1-to-3 in DMSO was added to cells with Assay Buffer. An equal volume of H3^33PO4 (PerkinElmer) in Assay Buffer supplemented with 5 μM potassium phosphate was then added to initiate radiolabeled phosphate (^33P-phosphate) uptake. The final phosphate concentration was 2.5 μM. Following a 60-minute incubation at room temperature, an equal volume of Assay Buffer containing 400 μM phloretin was added to stop ^33P-phosphate uptake. The plate was immediately read on a Wallac MicroBeta Trilux liquid scintillation counter. Percent inhibition at all concentrations tested was calculated, and IC50 values were then determined using a 4-parameter logistic curve fitting equation.

[2] = tested on: Madin-Darby Canine Kidney (MDCK) cell; experiment: MDCK cell uni-directional permeability assay; type: in vitro ADME; details: 20 µM, one hour, 24-well format
Experimental: LY3304000 has very low in vitro cell permeability. In a standard Madin-Darby Canine Kidney (MDCK) cell uni-directional permeability assay, measuring the percentage A to B (% A-B) transport in a 24-well format, the % A-B of LY330400 transport is 0.16 % at 20 µM for the assay duration of one hour.

CN1Cc2c(Cl)cc(Cl)cc2[C@H](c2cccc(S(=O)(=O)NCCOCCOCCN/C(=N\C(N)=O)NCCCCN/C(=N/C(N)=O)NCCOCCOCCNS(=O)(=O)c3cccc([C@@H]4CN(C)Cc5c(Cl)cc(Cl)cc54)c3)c2)C1.Cl.Cl [LY3304000, (Z)-[[4-[[(Z)-N’-carbamoyl-N-[2-[2-[2-[[3-[(4S)-6,8-dichloro-2-methyl-3,4-dihydro-1H-isoquinolin-4-yl]phenyl]sulfonylamino]ethoxy]ethoxy]ethyl]carbamimidoyl]amino]butylamino]-[2-[2-[2-[[3-[(4S)-6,8-dichloro-2-methyl-3,4-dihydro-1H-isoquinolin-4-yl]phenyl]sulfonylamino]ethoxy]ethoxy]ethylamino]methylene]urea dihydrochloride]
acute phosphate uptake, % of vehicle control ([1]; highest dose of LY3304000 plus 1.2 mg/kg LY3358966): 30%
acute phosphate uptake into plasma ([1]; highest dose of LY3304000 tested plus 1.2 mg/kg LY3358966, vehicle 710 nmoles): 212 nmol
IC50 (Human NPT2b): 58.4 µM
percentage A to B (% A-B) transport [2]: 0.16%
